Experimental data taken from patent US12590065B2, “Levorphanol prodrugs and processes for making and using them” (Zevra Therapeutics, Inc., priority 2017, dated 2026).

Test: stability of the deprotected derivative in aqueous solution
Type: physicochemical
Details: observed after Boc deprotection with 4N HCl in dioxane
Protocol: A solution of 38 in 4N HCl in dioxane (5 mL) was stirred at room temperature for 2 hours. Solvent was evaporated under reduced pressure, the residue was co-evaporated with IPAc and dried to give 40 in quantitative yield. The deprotected derivative 40 was not stable in aqueous solution. Compound 40 was converted to the acetyl derivative 42.

SMILES: CC(C)[C@H](N)C(=O)OCOC(=O)Oc1ccc2c(c1)[C@@]13CCCC[C@H]1[C@@H](C2)N(C)CC3 [Compound 40, 3-(Val-OCH2OC(O))-Levorphanol]
- stability in aqueous solution: not stable
